How the values were obtained:
Assay in all cases: combination Emax (second highest fraction inhibited in the dose matrix, 72 h); higher = more inhibition; extreme values may be limits of the assay
[1] = system: COLO-678 (Colorectal Carcinoma)
How it was run: (§1)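 Cell lines grown in DMEM/F12 or RPMI with 10% FBS were plated in 1536-well plates and held 24 hours at 37°C, 5% CO2 before 72 hours of exposure to two-drug dose matrices, with DMSO typically at 0.2%. CellTiter-Glo 2.0 luminescence gave viability, which was converted to inhibition. Vehicle wells were set to 0 and blank wells to 1. Combination Emax is the second-highest inhibition in the matrix, and Bliss excess is the observed combination effect minus the expected EA + EB − EA·EB, where EA and EB are the single-agent effects.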

[2] = system: HL-60 (Acute Myeloid Leukemia)
How it was run: as §1

[3] = system: PANC-08-13 (Pancreatic Carcinoma)
How it was run: as §1

[4] = system: TOV-112D (Ovarian Carcinoma)
How it was run: as §1

[5] = system: KARPAS-45 (T-Lymphoblastic Leukemia)
How it was run: as §1

[6] = system: KCL-22 (Chronic Myelogenous Leukemia)
How it was run: as §1

[7] = system: L-540 (Hodgkin's Lymphoma)
How it was run: as §1

[8] = system: CHP-212 (Neuroblastoma)
How it was run: as §1

[9] = system: CAMA-1 (Breast Carcinoma)
How it was run: as §1

[10] = system: KM12 (Colorectal Carcinoma)
How it was run: as §1

[11] = system: MFM-223 (Breast Carcinoma)
How it was run: as §1

[12] = system: SR (Other Blood Carcinomas)
How it was run: as §1

[13] = system: MS751 (Cervical Carcinoma)
How it was run: as §1

[14] = system: MOLT-16 (T-Lymphoblastic Leukemia)
How it was run: as §1

[15] = system: BFTC-905 (Bladder Carcinoma)
How it was run: as §1

[16] = system: SU-DHL-8 (B-Cell Non-Hodgkin's Lymphoma)
How it was run: as §1

[17] = system: SW1417 (Colorectal Carcinoma)
How it was run: as §1

[18] = system: DND-41 (T-Lymphoblastic Leukemia)
How it was run: as §1

[19] = system: BL-41 (Burkitt's Lymphoma)
How it was run: as §1

[20] = system: NCI-H1792 (Lung Adenocarcinoma)
How it was run: as §1

Compound	combination Emax [1]	combination Emax [2]	combination Emax [3]	combination Emax [4]	combination Emax [5]	combination Emax [6]	combination Emax [7]	combination Emax [8]	combination Emax [9]	combination Emax [10]	combination Emax [11]	combination Emax [12]	combination Emax [13]	combination Emax [14]	combination Emax [15]	combination Emax [16]	combination Emax [17]	combination Emax [18]	combination Emax [19]	combination Emax [20]
COc1nnc2ccc(N3CCC(c4ccc(OCCN5CCN(C)C(=O)[C@H]5C)cc4)CC3)nn12 [AZD5153] + C[C@@H]1COCCN1C2=NC(=NC(=C2)C3(CC3)[S@](=N)(=O)C)C4=C5C=CNC5=NC=C4 [AZD6738] (first compound max 1 µM, 7x7, partner max 10 µM)	0.484	0.985	0.831	0.849	1	0.978	0.913	0.967	0.661	0.88	0.734	0.937	0.911	1	0.802	0.996	0.662	0.979	1	0.805
COc1nnc2ccc(N3CCC(c4ccc(OCCN5CCN(C)C(=O)[C@H]5C)cc4)CC3)nn12 [AZD5153] + Cc1c2c(nn1C)CSCc1cc(n(C)n1)CSc1cc(c3ccccc3c1)OCCCc1c(C(=O)O)n(C)c3c-2c(Cl)ccc13 [AZD5991] (first compound max 1 µM, 7x7, partner max 1 µM)	0.51	1	0.825	0.986	1	0.902	1	1	0.951	0.648	0.587	0.968	0.919	1	0.746	0.998	0.459	0.845	1	0.877
COc1nnc2ccc(N3CCC(c4ccc(OCCN5CCN(C)C(=O)[C@H]5C)cc4)CC3)nn12 [AZD5153] + Cn1cnc2c(F)c(Nc3ccc(Br)cc3Cl)c(C(=O)NOCCO)cc21 [Selumetinib] (first compound max 1 µM, 7x7, partner max 10 µM)	0.615	0.966	0.805	0.684	1	0.957	0.628	0.989	0.506	0.786	0.507	0.675	0.849	0.949	0.873	0.955	0.778	0.893	0.863	0.78
Cc1c2c(nn1C)CSCc1cc(n(C)n1)CSc1cc(c3ccccc3c1)OCCCc1c(C(=O)O)n(C)c3c-2c(Cl)ccc13 [AZD5991] + C=CCn1c(=O)c2cnc(Nc3ccc(N4CCN(C)CC4)cc3)nc2n1-c1cccc(C(C)(C)O)n1 [AZD1775] (first compound max 1 µM, partner max 1 µM)	0.391	1	0.379	0.714	1	0.969	1	0.916	0.635	0.875	0.562	0.923	0.9	1	0.673	1	0.542	0.875	1	0.708
Cc1c2c(nn1C)CSCc1cc(n(C)n1)CSc1cc(c3ccccc3c1)OCCCc1c(C(=O)O)n(C)c3c-2c(Cl)ccc13 [AZD5991] + CC1(C)CCC(CN2CCN(c3ccc(C(=O)NS(=O)(=O)c4ccc(NCC5CCOCC5)c([N+](=O)[O-])c4)c(Oc4cnc5[nH]ccc5c4)c3)CC2)=C(c2ccc(Cl)cc2)C1 [Venetoclax] (first compound max 1 µM, 7x7, partner max 1 µM)	0.0393	1	0.116	0.777	1	0.928	1	0.835	0.934	0.173	0.276	0.964	0.812	1	0.604	0.861	0.191	0.418	1	0.379
Cc1c2c(nn1C)CSCc1cc(n(C)n1)CSc1cc(c3ccccc3c1)OCCCc1c(C(=O)O)n(C)c3c-2c(Cl)ccc13 [AZD5991] + CCN(CCO)CCCOc1ccc2c(Nc3cc(CC(=O)Nc4cccc(F)c4)[nH]n3)ncnc2c1 [AZD2811] (first compound max 1 µM, 7x7, partner max 1 µM)	0.227	1	0.281	0.868	1	0.921	1	0.86	0.914	0.249	0.574	0.988	0.855	1	0.794	0.931	0.23	0.21	1	0.314
Cc1c2c(nn1C)CSCc1cc(n(C)n1)CSc1cc(c3ccccc3c1)OCCCc1c(C(=O)O)n(C)c3c-2c(Cl)ccc13 [AZD5991] + CN(C)CCCOc1ccc(-c2ccc3ncc4c(c3c2)n(C2CCOCC2)c(=O)n4C)cn1 [AZD0156] (first compound max 1 µM, 7x7, partner max 1 µM)	0.152	1	0.211	0.551	0.913	0.926	1	0.837	0.555	0.27	0.238	0.96	0.859	1	0.273	0.692	0.263	0.158	1	0.345
Cc1c2c(nn1C)CSCc1cc(n(C)n1)CSc1cc(c3ccccc3c1)OCCCc1c(C(=O)O)n(C)c3c-2c(Cl)ccc13 [AZD5991] + C[C@@H]1COCCN1C2=NC(=NC(=C2)C3(CC3)[S@](=N)(=O)C)C4=C5C=CNC5=NC=C4 [AZD6738] (first compound max 1 µM, 7x7, partner max 10 µM)	0.241	1	0.419	0.963	1	0.997	1	0.939	0.751	0.746	0.824	1	0.901	1	0.862	1	0.453	0.9	1	0.731
Cc1c2c(nn1C)CSCc1cc(n(C)n1)CSc1cc(c3ccccc3c1)OCCCc1c(C(=O)O)n(C)c3c-2c(Cl)ccc13 [AZD5991] + C[C@@H](Nc1cc(F)cc(F)c1)c1cc(C(=O)N(C)C)cc2c(=O)cc(N3CCOCC3)oc12 [AZD8186] (first compound max 1 µM, 7x7, partner max 3 µM)	0.278	1	0.263	0.35	0.99	0.87	1	0.882	0.98	0.205	0.258	0.954	0.851	1	0.289	0.688	0.275	0.0838	1	0.441
Cc1c2c(nn1C)CSCc1cc(n(C)n1)CSc1cc(c3ccccc3c1)OCCCc1c(C(=O)O)n(C)c3c-2c(Cl)ccc13 [AZD5991] + Cc1cc2ncnn2cc1Nc1ncc2c(n1)n(C1CCOCC1)c(=O)n2C [AZD7648] (first compound max 1 µM, 7x7, partner max 10 µM)	0.152	1	0.238	0.492	0.936	0.94	1	0.831	0.742	0.208	0.288	0.984	0.829	1	0.211	0.684	0.297	0.164	1	0.441
Cc1c2c(nn1C)CSCc1cc(n(C)n1)CSc1cc(c3ccccc3c1)OCCCc1c(C(=O)O)n(C)c3c-2c(Cl)ccc13 [AZD5991] + Cn1cnc2c(F)c(Nc3ccc(Br)cc3Cl)c(C(=O)NOCCO)cc21 [Selumetinib] (first compound max 1 µM, 7x7, partner max 3 µM)	0.423	1	0.208	0.414	0.922	0.959	1	0.944	0.509	0.638	0.282	0.952	0.896	1	0.751	0.655	0.527	0.181	1	0.704
C[C@@H]1COCCN1c1cc(C2([S@](C)(=N)=O)CC2)nc(-c2ccnc3[nH]ccc23)n1 [AZD6738] + O=C(c1cc(Cc2n[nH]c(=O)c3ccccc23)ccc1F)N1CCN(C(=O)C2CC2)CC1 [Olaparib] (first compound max 10 µM, 7x7, partner max 10 µM)	0.159	0.619	0.313	0.795	0.832	0.909	0.936	0.795	0.322	0.615	0.773	0.97	0.395	1	0.873	0.888	0.38	0.947	1	0.707
Cc1cc2ncnn2cc1Nc1ncc2c(n1)n(C1CCOCC1)c(=O)n2C [AZD7648] + C=CCn1c(=O)c2cnc(Nc3ccc(N4CCN(C)CC4)cc3)nc2n1-c1cccc(C(C)(C)O)n1 [AZD1775] (first compound max 10 µM, partner max 1 µM)	0.27	0.812	0.312	0.468	0.819	0.937	0.945	0.769	0.303	0.764	0.69	0.986	0.387	1	0.56	0.87	0.555	0.813	1	0.715
